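A five-concentration, 48-hour dose response in 96-well plates underlies each endpoint, interpolated linearly between surrounding concentrations. TGI: total growth inhibition.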 Where a SMILES comes first, the peptide text is derived from it. The star is where a group is joined. Cbz = O=C(OCc1ccccc1)*; OBn = c1ccc(CO*)cc1

The subject of one assay is LOX IMVI melanoma. Put plainly: NCI tumour cell line growth inhibition, 48 h.
Regarding `Oc1ccccc1/C=N/Nc1nnc2c3ccccc3c3ccccc3c2n1`, the TGI was > 100 µM.

`CC(C)=CCOc1cc(NC(=S)c2ccoc2C)ccc1Cl`: the TGI is > 100 µM.

`N#CC1(C#N)C2CCCCC23OC(=N)C1(C#N)C(c1ccco1)O3` (stereo not drawn) yielded a TGI of 37.5 µM.

For the molecule `O=c1n(/N=C/c2ccccc2)c(=O)n2n1C1C=CC2CC1`, the TGI is > 100 µM.

On to `O=C(NC(C(F)(F)F)(C(F)(F)F)P(=O)(c1ccccc1)c1ccccc1)C(C(F)(F)F)C(F)(F)F`, for which the TGI worked out at 58.9 µM.

As for `COC(=O)[C@H](Cc1ccccc1)NC(=O)NCCN(CCNC(=O)N[C@@H](Cc1ccccc1)C(=O)OC)C(=O)N[C@@H](Cc1ccccc1)C(=O)OC`, the TGI amounted to 76.3 µM.

For the molecule `COc1cc2c(cc1OC)-c1[nH]c3ccc(C#N)cc3c1CC(=O)N2`, the TGI was > 33.6 µM.

Turning to `COc1cc(Br)c(OC)c2c(OC)cc(C)cc12`, the TGI was > 100 µM.

Consider `CCOC(=O)/C(N=Nc1ccc(-n2c(C)nc3ccccc3c2=O)cc1)=C(/C)O`, for which the TGI is > 100 µM.

Take `C[C@@]12C=CC3C/C(=N\C(N)=S)C=C(CCCC4OCCO4)[C@]3(CC1)C2` (stereo partly drawn): the TGI came out at 31.1 µM.

As to `CC(C)c1ccccc1SC1CC(=O)CC(Sc2ccccc2C(C)C)C12O[C@H](c1ccccc1)[C@@H](c1ccccc1)O2` (stereo partly drawn), the TGI is 97.4 µM.

`CSc1nc2ccccc2c(=O)n1/N=C1\C(=O)N(CN2CCCCC2)c2ccc(Cl)cc21` returned a TGI of 28.8 µM.

In another assay the test system is ACHN renal. Kind of assay: NCI tumour cell line growth inhibition, 48 h.
Take `O=C(c1ccc(Cl)cc1Cl)N(C(=O)N1CCC(c2ccccc2)CC1)c1ccccc1`: the TGI is > 100 µM.

Take `Oc1ccccc1/C=N/Nc1nnc2c3ccccc3c3ccccc3c2n1`: the TGI was > 100 µM.

On to `CC(C)=CCOc1cc(NC(=S)c2ccoc2C)ccc1Cl`, for which the TGI is > 100 µM.

Molecule `N#CC1(C#N)C2CCCCC23OC(=N)C1(C#N)C(c1ccco1)O3` (stereo not drawn) had a TGI of 94.2 µM.

Regarding `O=c1n(/N=C/c2ccccc2)c(=O)n2n1C1C=CC2CC1`, the TGI was > 100 µM.

`O=C(NC(C(F)(F)F)(C(F)(F)F)P(=O)(c1ccccc1)c1ccccc1)C(C(F)(F)F)C(F)(F)F`: the TGI was found to be 30.9 µM.

Consider `O=C1CC(=O)NC(=NN2C(=O)CSC2c2ccc(Cl)c(Cl)c2)N1` (stereo not drawn), for which the TGI is > 100 µM.

In turn, `COC(=O)[C@H](Cc1ccccc1)NC(=O)NCCN(CCNC(=O)N[C@@H](Cc1ccccc1)C(=O)OC)C(=O)N[C@@H](Cc1ccccc1)C(=O)OC` had a TGI of 51.6 µM.

Take `COc1cc2c(cc1OC)-c1[nH]c3ccc(C#N)cc3c1CC(=O)N2`: the TGI is > 100 µM.

Take `COc1cc(Br)c(OC)c2c(OC)cc(C)cc12`: the TGI is > 100 µM.

As to `CCOC(=O)/C(N=Nc1ccc(-n2c(C)nc3ccccc3c2=O)cc1)=C(/C)O`, the TGI was > 100 µM.

On to `C[C@@]12C=CC3C/C(=N\C(N)=S)C=C(CCCC4OCCO4)[C@]3(CC1)C2` (stereo partly drawn), for which the TGI came to 92.2 µM.

Turning to `CC(C)c1ccccc1SC1CC(=O)CC(Sc2ccccc2C(C)C)C12O[C@H](c1ccccc1)[C@@H](c1ccccc1)O2` (stereo partly drawn), the TGI is > 100 µM.

Consider `CSc1nc2ccccc2c(=O)n1/N=C1\C(=O)N(CN2CCCCC2)c2ccc(Cl)cc21`, for which the TGI was > 100 µM.

The test system of a further assay is HOP-92 NSCLC. Put plainly: NCI tumour cell line growth inhibition, 48 h.
With `O=C(c1ccc(Cl)cc1Cl)N(C(=O)N1CCC(c2ccccc2)CC1)c1ccccc1`, the TGI was > 100 µM.

With `COC(=O)CNC(=O)C(C)NC(=O)C(CC(=O)OCc1ccccc1)NC(=O)OCc1ccccc1` (stereo not drawn) (Cbz-Asp(OBn)-Ala-Gly-OMe; configuration not given here), the TGI is > 100 µM.

`Oc1ccccc1/C=N/Nc1nnc2c3ccccc3c3ccccc3c2n1`: the TGI is > 100 µM.

With `CC(C)=CCOc1cc(NC(=S)c2ccoc2C)ccc1Cl`, the TGI is > 100 µM.

On to `N#CC1(C#N)C2CCCCC23OC(=N)C1(C#N)C(c1ccco1)O3` (stereo not drawn), for which the TGI is 29.2 µM.

Regarding `O=c1n(/N=C/c2ccccc2)c(=O)n2n1C1C=CC2CC1`, the TGI is > 100 µM.

`O=C1CC(=O)NC(=NN2C(=O)CSC2c2ccc(Cl)c(Cl)c2)N1` (stereo not drawn): the TGI was > 100 µM.

On to `COC(=O)[C@H](Cc1ccccc1)NC(=O)NCCN(CCNC(=O)N[C@@H](Cc1ccccc1)C(=O)OC)C(=O)N[C@@H](Cc1ccccc1)C(=O)OC`, for which the TGI was 70 µM.

As for `COc1cc2c(cc1OC)-c1[nH]c3ccc(C#N)cc3c1CC(=O)N2`, the TGI is > 100 µM.

On to `CCOC(=O)/C(N=Nc1ccc(-n2c(C)nc3ccccc3c2=O)cc1)=C(/C)O`, for which the TGI was > 100 µM.

In the case of `C[C@@]12C=CC3C/C(=N\C(N)=S)C=C(CCCC4OCCO4)[C@]3(CC1)C2` (stereo partly drawn), the TGI was > 100 µM.

Turning to `CC(C)c1ccccc1SC1CC(=O)CC(Sc2ccccc2C(C)C)C12O[C@H](c1ccccc1)[C@@H](c1ccccc1)O2` (stereo partly drawn), the TGI was > 100 µM.

Turning to `CSc1nc2ccccc2c(=O)n1/N=C1\C(=O)N(CN2CCCCC2)c2ccc(Cl)cc21`, the TGI was > 100 µM.

A further assay relates to IGROV1 ovarian. Put plainly: NCI tumour cell line growth inhibition, 48 h.
In the case of `O=C(c1ccc(Cl)cc1Cl)N(C(=O)N1CCC(c2ccccc2)CC1)c1ccccc1`, the TGI is > 100 µM.

Turning to `COC(=O)CNC(=O)C(C)NC(=O)C(CC(=O)OCc1ccccc1)NC(=O)OCc1ccccc1` (stereo not drawn) (Cbz-Asp(OBn)-Ala-Gly-OMe; configuration not given here), the TGI was > 100 µM.

Regarding `Oc1ccccc1/C=N/Nc1nnc2c3ccccc3c3ccccc3c2n1`, the TGI is > 100 µM.

As for `CC(C)=CCOc1cc(NC(=S)c2ccoc2C)ccc1Cl`, the TGI was > 100 µM.

The molecule `N#CC1(C#N)C2CCCCC23OC(=N)C1(C#N)C(c1ccco1)O3` (stereo not drawn) yielded a TGI of 40.3 µM.

For the molecule `O=c1n(/N=C/c2ccccc2)c(=O)n2n1C1C=CC2CC1`, the TGI was > 100 µM.

For `O=C(NC(C(F)(F)F)(C(F)(F)F)P(=O)(c1ccccc1)c1ccccc1)C(C(F)(F)F)C(F)(F)F`, the TGI turned out to be 57.7 µM.

In the case of `O=C1CC(=O)NC(=NN2C(=O)CSC2c2ccc(Cl)c(Cl)c2)N1` (stereo not drawn), the TGI is > 100 µM.

For `COc1cc2c(cc1OC)-c1[nH]c3ccc(C#N)cc3c1CC(=O)N2`, the TGI is > 100 µM.

Turning to `COc1cc(Br)c(OC)c2c(OC)cc(C)cc12`, the TGI was > 100 µM.

Turning to `CCOC(=O)/C(N=Nc1ccc(-n2c(C)nc3ccccc3c2=O)cc1)=C(/C)O`, the TGI is > 100 µM.

With `C[C@@]12C=CC3C/C(=N\C(N)=S)C=C(CCCC4OCCO4)[C@]3(CC1)C2` (stereo partly drawn), the TGI stood at 37.9 µM.

With `CC(C)c1ccccc1SC1CC(=O)CC(Sc2ccccc2C(C)C)C12O[C@H](c1ccccc1)[C@@H](c1ccccc1)O2` (stereo partly drawn), the TGI was > 100 µM.

Molecule `CSc1nc2ccccc2c(=O)n1/N=C1\C(=O)N(CN2CCCCC2)c2ccc(Cl)cc21` yielded a TGI of 75.1 µM.

A further assay concerns DU-145 prostate. Kind of assay: NCI tumour cell line growth inhibition, 48 h.
Regarding `O=C(c1ccc(Cl)cc1Cl)N(C(=O)N1CCC(c2ccccc2)CC1)c1ccccc1`, the TGI is > 100 µM.

Take `COC(=O)CNC(=O)C(C)NC(=O)C(CC(=O)OCc1ccccc1)NC(=O)OCc1ccccc1` (stereo not drawn) (Cbz-Asp(OBn)-Ala-Gly-OMe; configuration not given here): the TGI was > 100 µM.

For the molecule `Oc1ccccc1/C=N/Nc1nnc2c3ccccc3c3ccccc3c2n1`, the TGI was > 100 µM.

In the case of `CC(C)=CCOc1cc(NC(=S)c2ccoc2C)ccc1Cl`, the TGI was > 100 µM.

The molecule `N#CC1(C#N)C2CCCCC23OC(=N)C1(C#N)C(c1ccco1)O3` (stereo not drawn) came in with a TGI of 90 µM.

For `O=c1n(/N=C/c2ccccc2)c(=O)n2n1C1C=CC2CC1`, the TGI was > 100 µM.

For the molecule `O=C(NC(C(F)(F)F)(C(F)(F)F)P(=O)(c1ccccc1)c1ccccc1)C(C(F)(F)F)C(F)(F)F`, the TGI is > 100 µM.

In the case of `O=C1CC(=O)NC(=NN2C(=O)CSC2c2ccc(Cl)c(Cl)c2)N1` (stereo not drawn), the TGI was > 100 µM.

Consider `COC(=O)[C@H](Cc1ccccc1)NC(=O)NCCN(CCNC(=O)N[C@@H](Cc1ccccc1)C(=O)OC)C(=O)N[C@@H](Cc1ccccc1)C(=O)OC`, for which the TGI was determined as 41.6 µM.

As for `COc1cc2c(cc1OC)-c1[nH]c3ccc(C#N)cc3c1CC(=O)N2`, the TGI is > 100 µM.

Regarding `COc1cc(Br)c(OC)c2c(OC)cc(C)cc12`, the TGI is > 100 µM.

Regarding `CCOC(=O)/C(N=Nc1ccc(-n2c(C)nc3ccccc3c2=O)cc1)=C(/C)O`, the TGI is > 100 µM.

As for `C[C@@]12C=CC3C/C(=N\C(N)=S)C=C(CCCC4OCCO4)[C@]3(CC1)C2` (stereo partly drawn), the TGI is 78.6 µM.

`CC(C)c1ccccc1SC1CC(=O)CC(Sc2ccccc2C(C)C)C12O[C@H](c1ccccc1)[C@@H](c1ccccc1)O2` (stereo partly drawn): the TGI is > 100 µM.

`CSc1nc2ccccc2c(=O)n1/N=C1\C(=O)N(CN2CCCCC2)c2ccc(Cl)cc21` yielded a TGI of 42.7 µM.
